Data on twelve molecules can be found in patent US20250134869A1, “Pyrrolo[2,3-d]pyrimidinyl, Pyrrolo[2,3-b]pyrazinyl and Pyrrolo[2,3-d]pyridinyl Acryla-mides” (Pfizer Inc, priority 2021, published 2025).

Data set [1] concerns IL-15 induced P-STAT5 in human PBMC. Briefly: PBMC IL-15 induced P-STAT5. Particulars: read-out: PBMC IL15-pSTAT5 IC50. It is filed as cell-based. On the procedure:
PBMC IL-15 Induced P-STAT5
Frozen human PBMC (200-250 million cells/vial) was thawed at 37° C. The cells were transferred to 10 mL warm medium in a 50-mL conical tube, and centrifuged at 1,200 RPM at room temperature for 5 min. The supernatant was aspirated. […] After adding 47 ml D-PBS (37° C.) to PBMC/FBS suspension, centrifuging at 1,200 RPM at room temperature for 5 min, and aspirating the supernatant, the cells were resuspended in 20 mL warm RPMI medium. Ninety μL of cell suspension were pipetted per well in a 96-well, deep-well, V-bottom plate, and the plate was incubated at 37° C. for 30 min. […] After adding 0.8 mL staining buffer per well, the plates were centrifuged at 1,200 RPM (Beckman GS-6R or Sorvall Legend) at room temperature for 5 min, and again the supernatant was aspirated using a 8-channel or 12-channel manifold. The plate was vortexed, and 0.35 mL 90% methanol/10% H2O (−20° C.) was added per well, and the plate incubated on ice for 20 min. After again adding 0.8 mL staining buffer per well, the plates were centrifuged at 1,200 RPM (Beckman GS-6R or Sorvall Legend) at room temperature for 5 min, and again the supernatant was aspirated using a 8-channel or 12-channel manifold, and then 0.8 mL Staining buffer was added per well. After once again adding 0.8 mL staining buffer per well, the plates were centrifuged at 1,200 RPM (Beckman GS-6R or Sorvall Legend) at room temperature for 5 min, and again the supernatant was aspirated using a 8-channel or 12-channel manifold. […] Samples of 250 μL/well were transferred to a 96-well U-bottom plate, and the FACS analysis was performed gating on total lymphocytes. Samples were analyzed using a BD Calibur™ or BD FACSCanto™ flow cytometer equipped with the BD High Throughput Sampler.

Data set [2] can be described thus: Stability of JAK3 covalent inhibitors in human whole blood. Particulars: 1 μM, 37° C.
From the text: Stability of JAK3 Covalent Inhibitors in Rat and Human Whole Blood
Rat blood was collected from 3 male Sprague-Dawley rats (200-250 g, Charles River Laboratories) and pooled for each study. Human blood was collected from one male and one female healthy subjects at the Occupational Health & Wellness Center at Pfizer, Groton, CT and pooled for each study. Both rat and human blood was collected freshly into K2-EDTA tubes and kept on ice. An aliquot of the blood was transferred to microtubes and pre-warmed for 10 min at 37° C. using a heat block. […] An aliquot of the incubation mixture was removed at designated time points during the course of the incubation, mixed with an aliquot of acetonitrile containing an internal standard, vortexed and centrifuged. The resulting supernatants were removed and subjected to LC-MS/MS analyses to determine parent compound concentrations. Peak area ratios of the parent compound vs the internal standard were used to determine the % of parent compound remaining vs incubation time.
Data set [3] deals with JAK3 enzyme (Homo sapiens (Human), UniProt P52333). Briefly: JAK Caliper Enzyme Assay at 4 μM or 1 mM ATP. In kind it is biochemical.
JAK3 enzyme, sequence (P52333 whole entry, species assumed): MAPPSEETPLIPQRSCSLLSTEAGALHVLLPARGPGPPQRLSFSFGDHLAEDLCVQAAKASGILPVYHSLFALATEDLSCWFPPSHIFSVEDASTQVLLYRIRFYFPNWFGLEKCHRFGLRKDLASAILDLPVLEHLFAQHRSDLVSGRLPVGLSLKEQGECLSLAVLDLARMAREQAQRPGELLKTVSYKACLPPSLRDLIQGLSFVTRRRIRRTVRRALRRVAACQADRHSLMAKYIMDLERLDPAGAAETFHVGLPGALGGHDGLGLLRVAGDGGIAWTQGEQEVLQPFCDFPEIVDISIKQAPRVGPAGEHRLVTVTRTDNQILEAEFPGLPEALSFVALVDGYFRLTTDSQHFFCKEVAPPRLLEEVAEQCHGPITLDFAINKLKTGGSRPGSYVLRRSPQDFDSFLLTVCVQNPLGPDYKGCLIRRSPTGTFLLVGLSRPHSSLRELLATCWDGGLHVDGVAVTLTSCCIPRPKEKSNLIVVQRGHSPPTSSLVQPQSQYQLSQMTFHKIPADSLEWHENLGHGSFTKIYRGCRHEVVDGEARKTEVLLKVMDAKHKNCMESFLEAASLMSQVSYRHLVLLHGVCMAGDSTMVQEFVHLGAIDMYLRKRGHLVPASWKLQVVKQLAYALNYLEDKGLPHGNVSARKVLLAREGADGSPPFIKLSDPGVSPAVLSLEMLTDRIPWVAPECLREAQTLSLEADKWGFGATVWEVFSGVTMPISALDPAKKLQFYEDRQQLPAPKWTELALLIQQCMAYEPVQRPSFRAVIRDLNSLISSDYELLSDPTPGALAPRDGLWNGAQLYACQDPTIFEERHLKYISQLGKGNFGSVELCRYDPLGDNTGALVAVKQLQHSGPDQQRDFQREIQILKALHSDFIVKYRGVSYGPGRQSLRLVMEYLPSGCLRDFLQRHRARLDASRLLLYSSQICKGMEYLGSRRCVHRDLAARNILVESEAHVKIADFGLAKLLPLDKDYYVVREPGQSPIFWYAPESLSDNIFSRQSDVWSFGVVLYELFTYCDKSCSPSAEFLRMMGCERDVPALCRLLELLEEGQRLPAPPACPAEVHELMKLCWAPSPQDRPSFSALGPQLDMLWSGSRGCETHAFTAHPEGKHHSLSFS
In data set [4] the test system is IL-15 induced STAT5 phosphorylation in human whole blood lymphocytes. In words: HWB IL-15 induced STAT5 phosphorylation assay. It is filed as cell-based. Particulars: IL-15 stimulated, read-out: HWB-IL15-pSTAT5 IC50. The procedure:
HWB IL-15 Induced STAT5 Phosphorylation Assay
After mixing and incubating for 45 minutes at 37° C., 5 μl D-PBS (unstimulated control) or 20× stocks of 5 μl human IL-15 (final concentration is 50 ng/ml) were added, and mixed three times. After incubating 15 minutes at 37° C., 1× Lyse/Fix Buffer (BD Phosflow 5× Lyse/Fix Buffer) was added to all wells at 1000 μl/well, then incubated for 20 minutes at 37° C. and spun 5 mins at 1200 rpm. […] Following incubating at 4° C. over night, all the samples were transferred to 96-well polypropylene U-bottom plate, and checked by flow cytometry gated on total lymphocytes.

Setting [5] is: Homo sapiens, PBMC, human PBMC, IL-15 stimulated.
The mark [6] stands for this setting: read-out: JAK3 (4 μM ATP) IC50, 4 μM ATP.
The mark [7] stands for this setting: read-out: JAK3 (1 mM ATP) IC50, 1 mM ATP.

Where two headings read alike, the source gives them in different places.

As a reminder, the IC50 is the concentration that inhibits the measured activity by half. In the case of `C=CC(=O)N1CC(Nc2ncnc3[nH]ccc23)CCC1CO` (stereo not shown) [Example 118, 1-[2-(Hydroxymethyl)-5-(7H-pyrrolo[2,3-d]pyrimidin-4-ylamino)piperidin-1-yl]prop-2-en-1-one], the IC50 in data set [1] (human PBMC, IL-15 stimulated) was > 10000 nM. Besides, in data set [2], the “Human blood stability t1/2” value is >333.5 min.

With `C=CC(=O)N1CC2CCN(c3cnc4[nH]cc(C(=O)NC(C)C)c4n3)C2C1` (stereo not shown) [Example 178, 2-(5-acryloylhexahydropyrrolo[3,4-b]pyrrol-1(2H)-yl)-N-(propan-2-yl)-5H-pyrrolo[2,3-b]pyrazine-7-carboxamide], the half-inhibitory concentration (IC50) in data set [1] (setting [5]) was determined as 208 nM; in data set [3] (setting [6]), 1.1 nM; in data set [3] (setting [7]), 102 nM; in data set [4] (Lymphocyte), 2560 nM.

As to `C=CC(=O)N1CC(O)C(Nc2cnc3[nH]cc(C(=O)NC(C)C)c3n2)C1` (stereo not shown) [Example 179, 2-[(1-acryloyl-4-hydroxypyrrolidin-3-yl)amino]-N-(propan-2-yl)-5H-pyrrolo[2,3-b]pyrazine-7-carboxamide], the IC50 in data set [1] (human PBMC, IL-15 stimulated) is > 10000 nM; in data set [3] (setting [6]), 2.3 nM; in data set [3] (setting [7]) it was 309 nM; in data set [4] (Lymphocyte), > 10000 nM.

As for `C=CC(=O)N1C[C@@H](Nc2ncnc3[nH]ccc23)CC[C@H]1CO` [Example 117, 1-[(2S,5S)-2-(Hydroxymethyl)-5-(7H-pyrrolo[2,3-d]pyrimidin-4-ylamino)piperidin-1-yl]prop-2-en-1-one], the concentration for half-maximal inhibition (IC50) in data set [1] (setting [5]) and in data set [4] (Lymphocyte) was > 10000 nM each time.

Consider `C=CC(=O)N1C[C@H](Nc2ncnc3[nH]ccc23)CC[C@@H]1CO` (single isomer, unassigned) [Example 7], for which the IC50 in data set [1] (setting [5]) is 76.9 nM; in data set [4] (Lymphocyte) it was 455 nM. Besides, the “Human blood stability t1/2” value in data set [2] is recorded as >333.5 min.

Consider `C=CC(=O)N1CCC(Nc2cnc3[nH]cc(C(=O)N[C@@H]4C[C@H]4C(F)(F)F)c3n2)CC1` [Example 233, 2-[(1-acryloylpiperidin-4-yl)amino]-N-[(1R,2R)-2-(trifluoromethyl)cyclopropyl]-5H-pyrrolo[2,3-b]pyrazine-7-carboxamide], for which the half-maximal inhibitory concentration (IC50) in data set [1] (human PBMC, IL-15 stimulated) turned out to be 213 nM; in data set [3] (setting [6]), 0.2 nM; in data set [3] (setting [7]), 20.6 nM; in data set [4] (Lymphocyte), 532 nM.

Turning to `C=CC(=O)N1C[C@H](Nc2ncnc3[nH]ccc23)CC[C@@H]1CO` [Example 161, 1-[(2R,5R)-2-(Hydroxymethyl)-5-(7H-pyrrolo[2,3-d]pyrimidin-4-ylamino)piperidin-1-y]prop-2-en-1-one], the IC50 worked out at 76.9 nM in data set [1] (human PBMC, IL-15 stimulated) and 455 nM in data set [4]. In addition, the “Human blood stability t1/2” value in data set [2] was >323.5 min.

On to `C=CC(=O)N1CCC[C@@H](Nc2ccnc3[nH]cc(C#N)c23)C1` [Example 2, (R)-4-((1-acryloylpiperidin-3-yl)amino)-1H-pyrrolo[2,3-b]pyridine-3-carbonitrile], for which the “Human blood stability t1/2” value is >360.0 min. For the same molecule, in data set [1], the IC50 was found to be 30.4 nM. The IC50 in data set [3] (read-out: JAK3 (4 μM ATP) IC50) stood at 0.2 nM. Moreover, the IC50 in data set [3] (read-out: JAK3 (1 mM ATP) IC50) was found to be 18.9 nM. For the same molecule, the IC50 in data set [4] turned out to be 220 nM.

For the molecule `C=CC(=O)N1CCC(Oc2cnc3[nH]cc(-c4cnn(C)c4)c3n2)CC1` [Example 218, 1-(4-{[7-(1-methyl-1H-pyrazol-4-yl)-5H-pyrrolo[2,3-b]pyrazin-2-yl]oxy}piperidin-1-yl)prop-2-en-1-one], the IC50 in data set [1] (setting [5]) was 345 nM; in data set [3] (setting [6]), 0.6 nM; in data set [3] (setting [7]), 81.1 nM; in data set [4] (Lymphocyte), 6190 nM.

With `C=CC(=O)N1CCC(Oc2cnc3[nH]cc(C(=O)NC(C)(C)C)c3n2)CC1` [Example 338, 2-((1-Acryloylpiperidin-4-yl)oxy)-N-(tert-butyl)-5H-pyrrolo[2,3-b]pyrazine-7-carboxamide], the IC50 was 0.4 nM in data set [3] (setting [6]), 115 nM in data set [3] (setting [7]) and > 10000 nM in data set [4] (Lymphocyte).

On to `C=CC(=O)N1CCC[C@@H](Nc2ncnc3[nH]cc(-c4ccc(C(=O)NC5CC5)c(Cl)c4)c23)C1` [Example 31, 4-(4-{[(3R)-1-acryloylpiperidin-3-yl]amino}-7H-pyrrolo[2,3-d]pyrimidin-5-yl)-2-chloro-N-cyclopropylbenzamide], for which the “Human blood stability t1/2” value is reported as >360.0 min. Further, in data set [3] (read-out: JAK3 (4 μM ATP) IC50), the IC50 amounted to 24.1 nM. Moreover, the IC50 in data set [3] (read-out: JAK3 (1 mM ATP) IC50) amounted to 1860 nM.

For `C/C=C/C(=O)N1CCC[C@@H](Nc2ncnc3[nH]ccc23)C1` [Example 105, (2E)-1-[(3R)-3-(7H-pyrrolo[2,3-d]pyrimidin-4-ylamino)piperidin-1-yl]but-2-en-1-one], the IC50 in data set [3] (setting [6]) is 2480 nM; in data set [3] (setting [7]), > 10000 nM. Also, the “Human blood stability t1/2” value in data set [2] was >360.0 min.
